Patent US12434040B2, “Applicator for a microneedle array patch delivery system” (VAXESS TECHNOLOGIES, INC., priority 2023, dated 2025)

What was measured:
[1] = Rat PK studies (MAP vs subcutaneous), with body weights and application site observations; settings: rat follow up study; target dose 220 μg
Experimental: (§1) The first study was a pilot study evaluating the impact of array size and dose per needle on the PK profile. Approximately 324 μg of GLP-1 was formulated in Form 1 and delivered with a 60 vs a 90-microneedle array (FIG. 25A). […] The second study was a pilot study evaluating˜5 μg per needle formulated in either Form 1 or Form 2 each delivered with a 61-microneedle array.
(§2) A follow up PK study, with more extensive sampling, particularly in the first 48 hours, was carried out next.
(§3) A dose matched sample formulated in Tris buffer delivered by the subcutaneous route was included as a comparator. MAP dose loading and delivery was confirmed by RP-HPLC (FIG. 26A, top panels). […] The inset in FIG. 26A plots the total area under the curve (AUC) which is a measure of the total exposure to drug product for each animal, for each treatment group and serves as an estimate of bioavailability.
(§4) Male Sprague-Dawley rats (n≥5) of approximately 350-450 g and male Göttingen mini-pigs of 25-30 kg (n≥3) are used in pharmacokinetic studies. […] Individual animal plasma concentration-time values are used to calculate plasma concentration-time data for each delivery route and analyzed by noncompartmental pharmacokinetics using standard PK software.

[2] = rat, in vivo, 220 ug
Experimental: as §1, §2, §3, §4

semaglutide [SQ delivered GLP-1]
weight loss by Day 4 [1]: 10% | AUC (bioavailability) [2]: some variation in the AUC
